The text below walks through data of patent publication US20130102009A1, “SIRTUIN ACTIVATORS AND ACTIVATION ASSAYS” (priority 2010, published 2013).

“And” between values parts separate entries of the source, which are not always exact repeats. Equal values may be shown once. Peptide text beside a SMILES is read from it. Where only a bound is given, the exact number is not on record here.

Format in all cases: biochemical
Experiment [1] has as its target T1, SIRT1 (Homo sapiens, UniProt Q96EB6).
T1 sequence (Q96EB6 1-747): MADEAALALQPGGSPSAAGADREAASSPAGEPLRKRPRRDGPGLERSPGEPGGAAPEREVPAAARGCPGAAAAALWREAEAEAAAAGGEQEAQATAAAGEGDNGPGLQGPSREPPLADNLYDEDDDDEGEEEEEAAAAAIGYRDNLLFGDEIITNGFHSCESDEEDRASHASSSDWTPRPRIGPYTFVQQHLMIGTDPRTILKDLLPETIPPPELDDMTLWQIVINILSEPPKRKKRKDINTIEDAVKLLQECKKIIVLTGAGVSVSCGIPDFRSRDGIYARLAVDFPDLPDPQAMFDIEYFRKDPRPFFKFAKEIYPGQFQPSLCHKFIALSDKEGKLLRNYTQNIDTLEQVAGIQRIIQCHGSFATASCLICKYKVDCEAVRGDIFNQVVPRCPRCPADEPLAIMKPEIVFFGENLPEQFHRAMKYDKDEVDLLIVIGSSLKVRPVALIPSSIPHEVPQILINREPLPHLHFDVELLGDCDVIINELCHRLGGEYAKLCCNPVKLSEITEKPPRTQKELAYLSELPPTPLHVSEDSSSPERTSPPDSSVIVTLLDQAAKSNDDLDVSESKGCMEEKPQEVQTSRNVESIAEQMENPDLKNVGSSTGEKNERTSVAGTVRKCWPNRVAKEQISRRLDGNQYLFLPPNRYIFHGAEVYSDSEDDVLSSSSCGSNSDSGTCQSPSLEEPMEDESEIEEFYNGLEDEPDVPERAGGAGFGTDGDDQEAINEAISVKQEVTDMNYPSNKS
The experiment in a line: Steady-state kinetic parameters for SIRT1 substrates (PNC1-GDH-coupled assay). Further details: kc/K1: unit not given here. The conditions noted are these: 25° C., pH 7.5, [NAD+]o = 2 mM, [SIRT1]o 50-1,000 nM. The procedure:
All peptides were prepared by BioPeptide (San Diego, Calif.) and shown to be at least 95% pure by analytical HPLC analysis. Bovine glutamate dehydrogenase (GDH), α-ketoglutarate, NADH and NAD^+ were from Sigma Chemical Company. Full-length, human SIRT1 and the truncated version used for biophysical studies SIRT1(183-664) were prepared as described previously, and shown to have equivalent kinetic properties (Milne et al. (2007) Nature 450, 712-716). The nicotinamidase PNC1 was prepared as described by Denu and colleagues (Smith et al. (2009) Anal Biochem 394, 101-109).
To determine the interaction of STACs with SIRT1 two kinetic methods were employed. One, which was used for TAMRA-peptide, desTAMRA-peptide, des(biotin,TAMRA)-peptide, and p53-20 mer, used a previously described mass spectroscopic method for detection of peptide reaction products (Milne et al. (2007) Nature 450, 712-716). The other, used with peptides of general structure Ac-Arg-His-Lys-Lys^Ac-X, used a continuous, enzyme-coupled method reported previously (Smith et al. (2009) Anal Biochem 394, 101-109), in which the SRT1 product nicotinamide is first converted into nicotinic acid and ammonia by the action of PNC1, and the ammonia then used by GDH to convert α-ketoglutarate into glutamate. This reaction occurs with oxidation of NADH to NAD^+ which is accompanied by a change in absorbance at 340 nm (Δε340=−6,200 M^−1 cm^−1).
The kinetic experiments used to characterize activators were run on a Perkin Elmer Lambda 25 spectrophotometer equipped with a water-jacketed, eight-cell changer maintained at 25° C. In a typical kinetic experiment, all components of the reaction solution except SIRT1 were added to a 1 mL cuvette and allowed to reach thermal equilibrium. Final concentrations of the coupling system components were: 1 μM PNC1, 0.23 mM NADH, 3.4 mM α-ketoglutarate, and 20 U/mL bovine GDH. This solution also contained peptide substrate, NAD^.0., and activator, at concentrations indicated in the text. The final DMSO concentration was kept constant at 1%, and the buffer used in these experiments was 50 mM HEPES, 150 mM NaCl, pH 7.5. While the system was reaching thermal equilibrium, the absorbance was monitored to provide an accurate estimate of the background rate, which was subtracted from the reaction rate after the addition of SIRT1.
The parameters reported in this table were all determined using the PNC1-GDH-coupled assay. Kinetic parameters for the four 20 mers were also estimated using the mass spectroscopy-based assay first described by Milne et al. ((2007) Nature 450, 712-716) and agree with those reported in Table 3.

Experiment [2] concerns the target T1, SIRT1. The experiment in a line: Mass spectroscopic kinetic assay of SIRT1-catalyzed deacetylation of 20mer peptides. The procedure: Bovine glutamate dehydrogenase (GDH), α-ketoglutarate, NADH and NAD^+ were from Sigma Chemical Company. […] The nicotinamidase PNC1 was prepared as described by Denu and colleagues (Smith et al. (2009) Anal Biochem 394, 101-109). Our collection of approximately 5,000 SIRT1 activators was screened using the BioTrove mass spectrometry system, as previously described (Milne et al. (2007) Nature 450, 712-716). […] Compounds were present at 10 μM, and the assays were conducted in a pH 7.4 buffer containing 150 mM Tris, 5 mM DTT, 1% DMSO, and 0.025% BSA. To determine the interaction of STACs with SIRT1 two kinetic methods were employed. […] (2007) Nature 450, 712-716). The other, used with peptides of general structure […], used a continuous, enzyme-coupled method reported previously (Smith et al. (2009) Anal Biochem 394, 101-109), in which the SRT1 product nicotinamide is first converted into nicotinic acid and ammonia by the action of PNC1, and the ammonia then used by GDH to convert α-ketoglutarate into glutamate. This reaction occurs with oxidation of NADH to NAD^+ which is accompanied by a change in absorbance at 340 nm (Δε340=-6,200 M^-1 cm^-1). Activator titrations were plotted as relative velocity (i.e., the ratio of vx, velocity in the presence of activator X, to vo, velocity in the absence of activator) vs. [X]o, initial concentration of activator, and fit by nonlinear least-squares to the mechanism-independent expression for enzyme activation of […] the maximum relative velocity (i.e., vx/vo at infinite [X]o) and EC50 is the activator concentration at which vx/vo=(RVmax-1)/2. EC50 is a function of the kinetic mechanisms of both catalysis and activation, and the concentrations of substrates.

Experiment [3] has as its target T1, SIRT1. The experiment in a line: Mass spectrometry based SIRT1 activation assay (TAMRA/5TMR-labeled 20mer peptide). From the text:
A mass spectrometry based assay was used to identify modulators of SIRTI activity. The mass spectrometry based assay utilizes a peptide having 20 amino acid residues as follows: Ac-EE-K(biotin)-GQSTSSHSK(Ac)NleSTEG-K(5TMR)-EE-NH2 (SEQ ID NO: 1) wherein K(Ac) is an acetylated lysine residue and Nle is a norleucine. The peptide is labeled with the fluorophore 5TMR (excitation 540 nrnIemission 580 nm) at the C-terminus. The sequence of the peptide substrate is based on p53 with several modifications. In addition, the methionine residue naturally present in the sequence was replaced with the norleucine because the methionine may be susceptible to oxidation during synthesis and purification.
The mass spectrometry assay is conducted as follows: 0.5 J-1M peptide substrate and 120 μM βNAD^+ is incubated with 10 nM SIRT1 for 25 minutes at 25° C. in a reaction buffer (50 mM Tris-acetate pH 8, 137 mM NaCl, 2.7 mM KCl, 1 mM MgClz, 5 mM DTT, 0.05% BSA). Test compounds may be added to the reaction as described above. The SirTI gene is cloned into a T7-promoter containing vector and transformed into BL21 (DE3). After the 25 minute incubation with SIRT1, 10 μL of 10% formic acid is added to stop the reaction. Reactions are sealed and frozen for later mass spec analysis. Determination of the mass of the substrate peptide allows for precise determination of the degree of acetylation (i.e. starting material) as compared to deacetylated peptide (product).
A control for inhibition of sirtuin activity is conducted by adding 1 μL of 500 mM nicotinamide as a negative control at the start of the reaction (e.g., permits determination of maximum sirtuin inhibition). A control for activation of sirtuin activity is conducted using 10 nM of sirtuin protein, with 1 μL of DMSO in place of compound, to determine the amount of deacetylation of the substrate at a given timepoint within the linear range of the assay. This timepoint is the same as that used for test compounds and, within the linear range, the endpoint represents a change in velocity.
For the above assay, SIRTI protein was expressed and purified as follows. The SirT1 gene was cloned into a T7-promoter containing vector and transformed into BL21(DE3). The protein was expressed by induction with 1 mM IPTG as an N-terminal His-tag fusion protein at 18° C. overnight and harvested at 30,000×g. Cells were lysed with lysozyme in lysis buffer (50 mM Tris-HCl, 2 mM Tris[2-carboxyethyl]phosphine (TCEP), 10 μM ZnCl2, 200 mM NaCl) and further treated with sonication for 10 min for complete lysis. The protein was purified over a Ni-NTA column (Amersham) and fractions containing pure protein were pooled, concentrated and run over a sizing column (Sephadex S200 26/60 global). The peak containing soluble protein was collected and run on an Ion-exchange column (MonoQ). Gradient elution (200 mM-500 mM NaCl) yielded pure 20 protein. This protein was concentrated and dialyzed against dialysis buffer (20 mM TrisHCl, 2 mM TCEP) overnight. The protein was aliquoted and frozen at −80° C. until further use.
Sirtuin modulating compounds that activated SIRT1 were identified using the assay described above and are shown below in Table 4. The EC1.5 values represent the concentration of test compounds that result in 150% activation of SIRT1. The EC1.5 values for the activating compounds are represented by A (EC1.5≦1 μM), B (EC1.5>1 μM). The percent maximum fold activation is represented by A (Fold activation ≧200%) or B (Fold Activation <200%).

Turning to `CC(=O)NCCCC[C@H](NC(=O)[C@H](CCCCN)NC(=O)[C@H](Cc1c[nH]cn1)NC(=O)[C@H](CCCNC(=N)N)NC(C)=O)C(=O)N[C@@H](Cc1ccccc1)C(N)=O` [RHKK^AcF, Ac-Arg-His-Lys-Lys^Ac-Phe-NH2] (Ac-RHKK(Ac)F-NH2), in experiment [1], the kc is 0.16 s⁻¹ and the kc/K1 is 23.
Usually Km stands for the concentration of substrate that gives half-maximal velocity. Take “EEKGQSTSSHK^AcJSTEGKEE [des(Biotin,TAMRA)-peptide]”: in experiment [1], the Km came to 40 µM, the kc amounted to 0.044 s⁻¹ and the kc/K1 is listed as 1.1.
Take `CC(=O)NCCCC[C@H](NC(=O)[C@H](CCCCN)NC(=O)[C@H](Cc1c[nH]cn1)NC(=O)[C@H](CCCNC(=N)N)NC(C)=O)C(N)=O` [RHKK^Ac, Ac-Arg-His-Lys-Lys^Ac-NH2] (Ac-RHKK(Ac)-NH2): in experiment [1], the kc stood at 0.14 s⁻¹ and the kc/K1 is given as 6.0.
A word on the EC50: it is the concentration that produces a half-maximal response. For the compound `CCCCc1nc(NCCNC)cc(C(=O)Nc2ccccc2-c2nc3cc(COC4CCNCC4)cnc3s2)n1` [Compound 12, 2-butyl-6-(2-(methylamino)ethylamino)-N-(2-(6-((piperidin-4-yloxy)methyl)thiazolo[5,4-b]pyridin-2-yl)phenyl)pyrimidine-4-carboxamide], the “Effect on the deacetylation of des(biotin,TAMRA)-peptide” value in experiment [2] (substrate des(biotin,TAMRA)-peptide) was “none activate”. The “RVmax for activation of the deacetylation of desTAMRA-peptide” value is reported as roughly 2.3 in experiment [2] (substrate desTAMRA-peptide, fit to eq (1)) and 2.1 ± 0.1 in experiment [2] (substrate desTAMRA-peptide, fit to eq (1), listed as 24). In addition, the EC50 in experiment [2] (substrate desTAMRA-peptide, fit to eq (1), read-out: EC50 for activation of the deacetylation of desTAMRA-peptide) was ~2000 nM and 1500 nM. The “Ki,app for inhibition of the deacetylation of p53-20 mer” value in experiment [2] (substrate p53-20 mer, RV=1/(1+([X]o/Ki,app))) is given as “inhibit”. Moreover, the Ki in experiment [2] (substrate p53-20 mer, RV=1/(1+([X]o/Ki,app)), read-out: Ki,app for inhibition of the deacetylation of p53-20 mer) is 9000 ± 3000 nM. Also, in experiment [3] (25 min, percent maximum fold activation of SIRT1, read-out: % FOLD ACT.), the Emax was no less than 200%. The “EC1.5 uM” value in experiment [3] (concentration that results in 150% activation of SIRT1) was “A (EC1.5≦1 μM)”.
Consider `CC(=O)NCCCC[C@H](NC(=O)[C@H](CCCCN)NC(=O)[C@H](Cc1c[nH]cn1)NC(=O)[C@H](CCCNC(=N)N)NC(C)=O)C(=O)N[C@@H](Cc1c[nH]c2ccccc12)C(N)=O` [RHKK^AcW, Ac-Arg-His-Lys-Lys^Ac-Trp-NH2] (Ac-RHKK(Ac)W-NH2), for which, in experiment [1], the kc is 0.19 s⁻¹ and the kc/K1 amounted to 48.
For “Ac-EEK^(biotin)GQSTSSHSK^AcNle-STEGK^(5-TMR)EE-NH2 [TAMRA-peptide]”, in experiment [1], the Km turned out to be 8.3 µM, the kc stood at 0.036 s⁻¹ and the kc/K1 is listed as 4.3.
Regarding `CC(=O)NCCCC[C@H](NC(=O)[C@H](CCCCN)NC(=O)[C@H](Cc1c[nH]cn1)NC(=O)[C@H](CCCNC(=N)N)NC(C)=O)C(=O)N[C@@H](C)C(N)=O` [RHKK^AcA, Ac-Arg-His-Lys-Lys^Ac-Ala] (Ac-RHKK(Ac)A-NH2), in experiment [1], the kc stood at 0.15 s⁻¹ and the kc/K1 was 12.
Turning to SKKGQSTSRHKK^AcLJKTEGP [p53-20mer], in experiment [1], the Km was determined as 8.5 µM, the kc turned out to be 0.36 s⁻¹ and the kc/K1 was 42.
